Measured values as given in patent publication US20250352500A1, “USE OF PHENOLIC ACIDS DERIVATIVES IN TREATING ISCHEMIC STROKE” (LANZHOU UNIVERSITY, priority 2022, published 2025).

Assays:
Format in all cases: in vivo, male C57/BL mice
HIF-1α = test: RT-qPCR of HIF-1α mRNA in brain tissue; details: 72 h; for HIF-1α mRNA expression level reduced compared with MCAO group: three days of administration, compound 2 100 mg/kg, compound 1 50 mg/kg
Procedure: (§1) Grouping and administration method: Male C57/BL mice weighing 23±1 g were randomly divided into sham operation group (SHAM), model group (MCAO), compound 2 group (100 mg/kg), and compound 1 group (50 mg/kg), with 10 mice in each group. Mice in the SHAM group underwent vascular isolation, but no […] was administered, and no treatment was given before or after surgery. The model group mice were constructed with MCAO models and were not treated before and after surgery. The treatment group was treated with compound 2 or compound 1 on the basis of the model group. Mice with a neurological score of 0 after reperfusion and those that died before 72 hours post-surgery were excluded. The administration time for animal behavior tests was seven times at 0 h, 1 day, 2 days, 3 days, 4 days, 5 days, and 6 days after reperfusion, while the administration time for other experiments was three times at 0 h, 1 day, and 2 days after reperfusion. The drug was administered through the tail vein, and the sham operation group and model group were given equal amounts of saline.
HIF-1α is a sensitive regulator of oxygen homeostasis, rapidly inducing its expression after hypoxia-ischemia. It plays a wide range of roles in the pathophysiology of stroke, including neuronal survival, neuroinflammation, angiogenesis, glucose metabolism, and blood-brain barrier regulation. It can not only produce specific sensations in the case of hypoxia, but also facilitate the maintenance of oxygen homeostasis in the body. […]
After 72 hours of ischemia-reperfusion, the mRNA expression level of HIF-1α in brain tissue was detected and analyzed by RT-qPCR. […] Compared with the compound 1 group, the expression level of HIF-1α in the compound 2 group decreased by 53±11% (P<0.001). n=3, data are presented as mean±SEM, analyzed using one-way ANOVA, and subjected to Tukey's HSD test. *P<0.05, **P<0.01, ***P<0.001. ^#P<0.05, ^##P<0.01, ^###P<0.001. * indicates a comparison with the SHAM group, indicates a comparison with the Compound 2 group.

[1] = test system: TNF-α, IL-1β, IL-6, iNOS, and COX2; test: Immunofluorescence of pro-inflammatory factors in brain tissue; details: 72 h, P<0.001; for Number of pro-inflammatory factor-positive cells compared with MCAO group: three days of administration, compound 2 100 mg/kg, compound 1 50 mg/kg
Procedure: as §1
(§2) To investigate the effect of compounds on the expression of inflammatory factors after ischemia-reperfusion, this study used immunofluorescence experiments to observe the expression of TNF-α, IL-1β, IL-6, iNOS, and COX2 proteins in brain tissue. RT-qPCR experiments were used to detect the mRNA gene expression of pro-inflammatory factors TNF-α, IL-1β, IL-6, iNOS, and COX2 in the sham operation group, model group, compound 2 group, and compound 1 group. The concentrations of TNF-α, IL-1β, and IL-6 in brain homogenate were detected by enzyme-linked immunosorbent assay (ELISA), and the expression level of TNF-α protein in brain tissue was detected by Western blot.
After 72 hours of ischemia-reperfusion, the expression changes of inflammatory factors such as TNF-α, IL-1β, IL-6, iNOS, and COX2 in brain regions were analyzed by immunofluorescence staining. […]

MCAO model mice = test: Rotating rod (balance rod) test of motor coordination after ischemia-reperfusion
Procedure: as §1
The balance rod test was used to test the motor coordination of mice. The experiment was divided into four groups: sham operation group (SHAM), model group (MCAO), compound 2 group and compound 1 group. The effects of compound 2 on the recovery of behavioral function in mice after ischemia-reperfusion were comprehensively analyzed. The rotating rod test can test the motor coordination ability of mice. The experimental procedure is set to gradually accelerate the speed of the rotating rod from 10 rpm to 40 rpm within 300 seconds. Record the time that the mouse stays on the rotating stick. The mice were trained 3 days in advance. Select mice that can stay on the rotating rod for about 300 seconds for the next experiment. The time that the mice spent on the rotating rod before the model was constructed was selected as the pre-operative test value. The trained mice were subjected to MCA occlusion for 60 minutes and then reperfusion. Mice in the SHAM group, MCAO group, Compound 2 group, and Compound 1 group underwent rotating rod testing on days 1, 3, 5, and 7 post-surgeries, respectively, and the duration of their stay on the rotating rod was recorded.
After reperfusion for 1 to 3 days, the motor coordination ability continued to decline, but gradually recovered after 3 days, but the degree of recovery was extremely low.

COX2 = test: RT-qPCR of COX2 mRNA in brain tissue; details: 72 h, three days of administration, compound 2 100 mg/kg, compound 1 50 mg/kg, P<0.001
Procedure: as §1, with “The administration time for animal behavior tests was seven times at 0 h, 1 day, 2 days, 3 days, 4 days, 5 days, and 6 days after reperfusion, while the administration time for other experiments was three times at 0 h, 1 day, and 2 days after reperfusion. The drug was administered through the tail vein, and the sham operation group and model group were given equal amounts of saline.” left out
as §2, with “RT-qPCR experiments were used to detect the mRNA gene expression of pro-inflammatory factors TNF-α, IL-1β, IL-6, iNOS, and COX2 in the sham operation group, model group, compound 2 group, and compound 1 group.” left out
(§3) After 72 hours of ischemia-reperfusion, the mRNA expression levels of TNF-α, IL-1β, IL-6, iNOS, and COX2 in brain tissue were detected and analyzed by RT-qPCR. […]

IL-6 = test: RT-qPCR of IL-6 mRNA in brain tissue; details: 72 h, three days of administration, compound 2 100 mg/kg, P<0.01
Procedure: as §1, with “The administration time for animal behavior tests was seven times at 0 h, 1 day, 2 days, 3 days, 4 days, 5 days, and 6 days after reperfusion, while the administration time for other experiments was three times at 0 h, 1 day, and 2 days after reperfusion. The drug was administered through the tail vein, and the sham operation group and model group were given equal amounts of saline.” left out
as §2, with “RT-qPCR experiments were used to detect the mRNA gene expression of pro-inflammatory factors TNF-α, IL-1β, IL-6, iNOS, and COX2 in the sham operation group, model group, compound 2 group, and compound 1 group.” left out
as §3

[2] = compound 2 100 mg/kg vs compound 1 50 mg/kg, P<0.001

Row | Compound | HIF-1α mRNA expression level reduced compared with MCAO group (HIF-1α) | Number of pro-inflammatory factor-positive cells compared with MCAO group [1] | Motor coordination ability (time on rotating rod) compared with MCAO group (MCAO model mice; compound 1 50 mg/kg tail vein, time not stated) | COX2 mRNA expression compared with MCAO group (COX2) | HIF-1α mRNA expression level decreased compared with the compound 1 group (HIF-1α; [2]) | Density of pro-inflammatory factor-positive cells compared with the compound 1 group ([1]; compound 2 100 mg/kg vs compound 1 50 mg/kg) | Motor coordination ability (time on rotating rod) compared with model group (MCAO) (MCAO model mice; at 5 and 7 days, compound 2 100 mg/kg tail vein, P<0.05) | Motor coordination (time on rotating rod) compared with model group (MCAO) (MCAO model mice; at 7 days of reperfusion, compound 2 100 mg/kg tail vein, P<0.001) | Motor coordination ability (time on rotating rod) compared with the compound 1 group (MCAO model mice; [2]) | Decrease of IL-6 mRNA expression compared with MCAO group (IL-6)
1 | O=C(O)c1cc(O)ccc1O [compound 1] | 41±13% | significantly decreased | improved | significantly reduced |  |  |  |  |  | 
2 | O=C(O)c1cc(OP(=O)(O)O)ccc1OP(=O)(O)O [compound 2] | 75±17% | significantly decreased |  | significantly reduced | 53±11% | significantly reduced | significantly improved | significantly improved | significantly improved | 51±8%
